Laboratory results from patent US5147876A, “2,6-di,2,4,6-, 2,5,6-tri and 2,4,5,6-tetra-substituted pyrimidines, their pharmaceutically acceptable salts, pharmaceutical compositions containing same and their use in the treatment of neurological diseases” (Mitsui Petrochemical Industries, Ltd., priority 1988, dated 1992).

Key:
[1] = tested on: neuro-2a (mouse neuroblastoma cells); assay: Action on neuro-2a: proportion of cells containing outgrown neurites; type: cell-based; details: mean ± S.D.
Procedure: (§1) The effects of the compounds of this invention on neuroblastoma cells were examined by the following method.
(§2) Mouse neuro 2a cells in the logarithmic growth period in the Dulbecco's modified Eagle's medium DMEM, containing 100 units/ml of penicillin G sodium and 100 micrograms/ml of streptomycin sulfate]containing 10 % of FCS were seeded in a 48-well plate so that the number of cells was 1,000 cells/well, and cultured for one day in 0.25 ml of the culture fluid in each well in an incubator containing 5 % of carbon dioxide gas in air at 37° C. Then, a 4 % aqueous glutaraldehyde solution in the same amount as a medium (0.25 ml) was added, and the culture fluid was left to stand at room temperature for 2 hours to fix the cells. After washing with water, a 0.05 % aqueous solution of methylene blue was added to stain the cells Under a microscope, the number of cells containing outgrown neurites (cells having at least one neurite with a length of at least two times as large as the long diameter of the cell) was counted visually, and the proportion of these cells in the entire cells was calculated. The well was observed over 5 or more visual fields (at least 2 % of the entire surface area of the well) continuous to the left and right from a mark put at the center of the well, and more than 200 cells was counted. One drug compound was used in 6 different concentrations at most, and three runs were conducted for each concentrations.

[2] = Acute toxicity on mice; type: in vivo; details: mouse, in vivo, ip, 24 hours after administration; read-out: Estimated LD50
Procedure: The acute toxicity of the compounds of the invention was examined by the following method.
Male ddy-strain 5-week old mice, 4-6- per group, were used as experimental animals. Each of the compounds was intraperitoneally (i.p.), and the toxicity of the compound was assessed 24 hours after the administration.

[3] = tested on: NS-20Y (mouse neuroblastoma cells); assay: Activity on NS-20Y cells: appearance of neurites; type: cell-based
Procedure: as §1, §2
Mouse neuroblastoma cells NS-20Y were similarly cultured in a dish coated with polyornithine, and the effects of the compounds were examined.

With CN(C)c1nccc(N(C)C(=O)c2ccccc2)n1 [Compound 104] the “Number of cells having neurites with a length at least two times the diameter of each cell/total number of cells” value (“Number … of each cell/total number of cells” for short) ([1]; 0.03 mM) was 2.5 ± 0.8%, the “Number … of each cell/total number of cells” value ([1]; 0.1 mM) was 4.1 ± 1.5% and the “Number … of each cell/total number of cells” value ([1]; 0.3 mM) was 7.7 ± 3.8%. The “Number … of each cell/total number of cells” value ([1]; 1 mM) was 3.6 ± 1.4% and the LD50 at 24 h [2] was 500 to 1000 mg/kg.

In the case of CC1CCCN(c2nccc(N(C)C(=O)c3ccccc3)n2)C1 (stereo not drawn) [Compound 138], the “Number … of each cell/total number of cells” value ([1]; 0.03 mM) was 6.3 ± 1.8%, the “Number … of each cell/total number of cells” value ([1]; 0.1 mM) was 12.6 ± 4.1% and the LD50 at 24 h [2] was over 1000 mg/kg.

In the case of CCCC1CCN(c2nccc(N(C)C(=O)c3ccccc3)n2)CC1 [Compound 146], the “Number … of each cell/total number of cells” value ([1]; 0.03 mM) was 8.7 ± 2.0%, the “Number … of each cell/total number of cells” value ([1]; 0.1 mM) was 40.0 ± 6.1% and the LD50 at 24 h [2] was over 1000 mg/kg.

With CC(C)C1CCN(c2nccc(N(C)C(=O)c3ccccc3)n2)CC1 [Compound 147-1] the “Number … of each cell/total number of cells” value ([1]; 0.03 mM) was 6.6 ± 0.4%, the “Number … of each cell/total number of cells” value ([1]; 0.1 mM) was 30.5 ± 6.1% and the LD50 at 24 h [2] was over 1000 mg/kg.

In the case of CC1CCCCN1c1nccc(N(C)C(=O)c2ccccc2)n1 (stereo not drawn) [Compound 154], the “Number … of each cell/total number of cells” value ([1]; 0.03 mM) was 5.2 ± 1.5%, the “Number … of each cell/total number of cells” value ([1]; 0.1 mM) was 16.2 ± 2.1% and the LD50 at 24 h [2] was over 1000 mg/kg.

With CCOc1ccc(C(=O)N(C)c2ccnc(N3CCC(c4ccccc4)CC3)n2)cc1 [Compound 171-5] the “Number … of each cell/total number of cells” value ([1]; 0.01 mM) was 7.2 ± 1.1%, the “Number … of each cell/total number of cells” value ([1]; 0.1 mM) was 28.4 ± 2.2% and the “Number … of each cell/total number of cells” value ([1]; 0.3 mM) was 32.7 ± 0.6%. For the same compound, the “Number … of each cell/total number of cells” value ([1]; 1 mM) was 14.0 ± 4.1% and the LD50 at 24 h [2] was over 1000 mg/kg.

In the case of CC(=O)N(C)c1ccnc(N2CCc3ccccc3C2)n1 [Compound 312], the “Number … of each cell/total number of cells” value ([1]; 0.03 mM) was 4.5 ± 0.4%, the “Number … of each cell/total number of cells” value ([1]; 0.1 mM) was 9.7 ± 0.9% and the LD50 at 24 h [2] was over 1000 mg/kg.

For CN1CCN(c2nccc(N(C)C(=O)c3ccccc3)n2)CC1 [Compound 352], the “Number … of each cell/total number of cells” value ([1]; 0.1 mM) was 3.2 ± 1.9%, the “Number … of each cell/total number of cells” value ([1]; 0.3 mM) was 9.9 ± 1.6% and the LD50 at 24 h [2] was 500 to 1000 mg/kg.

With Cc1cnc(N2CCCCC2)nc1N(C)C(=O)c1ccccc1 [Compound 408] the “Number … of each cell/total number of cells” value ([1]; 0.1 mM) was 9.1 ± 1.8%, the “Number … of each cell/total number of cells” value ([1]; 0.3 mM) was 9.6 ± 3.9% and the LD50 at 24 h [2] was 500 to 1000 mg/kg.

With CCCN(C(=O)c1ccccc1)c1nccc(N2CCC(c3ccccc3)CC2)n1 [Compound 644] the “Number … of each cell/total number of cells” value ([1]; 0.03 mM) was 26.1 ± 7.3%, the “Number … of each cell/total number of cells” value ([1]; 0.1 mM) was 14.7 ± 7.3% and the LD50 at 24 h [2] was over 1000 mg/kg.

With CNc1nc(N2CCCCC2)ncc1C [Compound 1094] the “Number … of each cell/total number of cells” value ([1]; 0.1 mM) was 5.4 ± 1.9%, the “Number … of each cell/total number of cells” value ([1]; 0.3 mM) was 16.9 ± 1.2% and the “Number … of each cell/total number of cells” value ([1]; 1 mM) was 10.9 ± 1.1%. For the same compound, the “Number of cells in which neurites appeared/total number of cells” value ([3]; 24 hours, 0.1 mM) was 4/54, the “Number of cells in which neurites appeared/total number of cells” value ([3]; 24 hours, 0.4 mM) was 7/48 and the “Number of cells in which neurites appeared/total number of cells” value ([3]; 48 hours, concentration printed "0. mM") was 2/50.

In the case of CNc1nc(C)cc(N2CCC(c3ccccc3)CC2)n1 [Compound 1158], the “Number … of each cell/total number of cells” value ([1]; 0.03 mM) was 9.9 ± 1.4%, the “Number … of each cell/total number of cells” value ([1]; 0.1 mM) was 18.4 ± 3.0% and the “Number … of each cell/total number of cells” value ([1]; 0.3 mM) was 22.1 ± 6.7%. For the same compound, the “Number … of each cell/total number of cells” value ([1]; 1 mM) was 19.1 ± 2.7% and the LD50 at 24 h [2] was under 250 mg/kg.

With CC1CC(C)CN(c2nccc(N(C)C(=O)c3ccccc3)n2)C1 (stereo not drawn) [Compound 2004] the “Number … of each cell/total number of cells” value ([1]; 0.03 mM) was 6.6 ± 2.2%, the “Number … of each cell/total number of cells” value ([1]; 0.1 mM) was 30.2 ± 6.4% and the LD50 at 24 h [2] was over 1000 mg/kg.

With CN(C(=O)c1ccccc1)c1ccnc(N2CCC(C)(C)CC2)n1 [Compound 2116] the “Number … of each cell/total number of cells” value ([1]; 0.1 mM) was 34.2 ± 3.8%, the “Number … of each cell/total number of cells” value ([1]; 0.3 mM) was 8.2 ± 3.6% and the LD50 at 24 h [2] was 500 to 1000 mg/kg.

In the case of CN(C(=O)c1cccnc1)c1ccnc(N2CCC(c3ccccc3)CC2)n1 [Compound 2140], the “Number … of each cell/total number of cells” value ([1]; 0.03 mM) was 5.4 ± 3.9%, the “Number … of each cell/total number of cells” value ([1]; 0.1 mM) was 17.0 ± 1.2% and the LD50 at 24 h [2] was over 1000 mg/kg.

For CN(C(=O)c1ccccc1)c1ccnc(N2CCCC3CCCCC32)n1 (stereo not drawn) [Compound 2156], the “Number … of each cell/total number of cells” value ([1]; 0.03 mM) was 8.6 ± 1.0%, the “Number … of each cell/total number of cells” value ([1]; 0.1 mM) was 19.6 ± 5.3% and the LD50 at 24 h [2] was over 1000 mg/kg.

For CN(C(=O)c1ccccc1)c1ccnc(N2CCC(CO)CC2)n1 [Compound 2164], the “Number … of each cell/total number of cells” value ([1]; 0.1 mM) was 4.6 ± 1.1%, the “Number … of each cell/total number of cells” value ([1]; 1 mM) was 11.7 ± 0.7% and the LD50 at 24 h [2] was over 1000 mg/kg.

In the case of CN(C(=O)c1ccc(N)cc1)c1ccnc(N2CCC(c3ccccc3)CC2)n1 [Compound 2182], the “Number … of each cell/total number of cells” value ([1]; 0.03 mM) was 8.0 ± 3.2%, the “Number … of each cell/total number of cells” value ([1]; 0.1 mM) was 2.7 ± 0.9% and the LD50 at 24 h [2] was 500 to 1000 mg/kg.

For CN(C(=O)N1CCCCC1)c1ccnc(N2CCC(c3ccccc3)CC2)n1 [Compound 2210], the “Number … of each cell/total number of cells” value ([1]; 0.03 mM) was 9.5 ± 2.0%, the “Number … of each cell/total number of cells” value ([1]; 0.1 mM) was 9.5 ± 1.9% and the LD50 at 24 h [2] was 500 to 1000 mg/kg.

With CN(C(=O)Nc1ccccc1)c1ccnc(N2CCC(c3ccccc3)CC2)n1 [Compound 2218] the “Number … of each cell/total number of cells” value ([1]; 0.03 mM) was 9.7 ± 1.8%, the “Number … of each cell/total number of cells” value ([1]; 0.1 mM) was 11.4 ± 6.1% and the LD50 at 24 h [2] was 500 to 1000 mg/kg.

For CCOC(=O)N(C)c1ccnc(N2CCC(c3ccccc3)CC2)n1 [Compound 2242], the “Number … of each cell/total number of cells” value ([1]; 0.03 mM) was 3.3 ± 0.9%, the “Number … of each cell/total number of cells” value ([1]; 0.1 mM) was 24.8 ± 2.9% and the LD50 at 24 h [2] was 500 to 1000 mg/kg.

For CN(C(=O)Cc1ccccc1)c1ccnc(N2CCC(c3ccccc3)CC2)n1 [Compound 2250], the “Number … of each cell/total number of cells” value ([1]; 0.1 mM) was 10.9 ± 3.9%, the “Number … of each cell/total number of cells” value ([1]; 0.3 mM) was 19.2 ± 1.0% and the LD50 at 24 h [2] was 500 to 1000 mg/kg.

With CN(Cc1ccccc1)c1ccnc(N2CCC(c3ccccc3)CC2)n1 [Compound 2278] the “Number … of each cell/total number of cells” value ([1]; 0.03 mM) was 13.9 ± 6.3%, the “Number … of each cell/total number of cells” value ([1]; 0.1 mM) was 12.5 ± 1.3% and the LD50 at 24 h [2] was 500 to 1000 mg/kg.

With CCN(CC)C(=O)N(C)c1ccnc(N2CCC(c3ccccc3)CC2)n1 [Compound 2302] the “Number … of each cell/total number of cells” value ([1]; 0.03 mM) was 8.0 ± 2.7%, the “Number … of each cell/total number of cells” value ([1]; 0.1 mM) was 8.2 ± 4.7% and the LD50 at 24 h [2] was 500 to 1000 mg/kg.

In the case of CN(C(=O)c1ccccc1)c1ccnc(N2CCC(C(=O)c3ccc(Cl)cc3)CC2)n1 [Compound 2310], the “Number … of each cell/total number of cells” value ([1]; 0.1 mM) was 8.3 ± 1.8%, the “Number … of each cell/total number of cells” value ([1]; 0.3 mM) was 12.1 ± 3.6% and the LD50 at 24 h [2] was 500 to 1000 mg/kg.
